Reference: the CheMixHub ionic liquid set

Experiment: xn = mol fraction of the nth substance listed

CC#N + CC[n+]1ccn(C)c1C.F[B-](F)(F)F
101.3 kPa, x2 = 0
Conditions | viscosity [mPa·s]
293.15 K | 0.361
298.15 K | 0.346
303.15 K | 0.332
308.15 K | 0.32
313.15 K | 0.309
318.15 K | 0.298
323.15 K | 0.288
328.15 K | 0.279
333.15 K | 0.271

CCCC[P+](C)(CCCC)CCCC.COS(=O)(=O)[O-] + CN1CCCC1=O
101 kPa
Conditions | viscosity [mPa·s]
293.15 K, x1 = 0.8086 | 530
298.15 K, x1 = 0.056 | 7.6
298.15 K, x1 = 0.3764 | 80
298.15 K, x1 = 0.7129 | 290
298.15 K, x1 = 0.8086 | 370
298.15 K, x1 = 1 | 520
303.15 K, x1 = 0.0914 | 4.9
303.15 K, x1 = 0.1773 | 10.8
303.15 K, x1 = 0.2318 | 15.5
303.15 K, x1 = 0.2971 | 25
303.15 K, x1 = 0.8086 | 260
303.15 K, x1 = 0.9022 | 330
303.15 K, x1 = 0.9468 | 350
313.15 K, x1 = 0.056 | 1
313.15 K, x1 = 0.1773 | 4.5
318.15 K, x1 = 0.2318 | 7.1
318.15 K, x1 = 0.7129 | 73
318.15 K, x1 = 0.8086 | 112
323.15 K, x1 = 0.0914 | 2.5
323.15 K, x1 = 0.6014 | 30

CCCC[P+](C)(CCCC)CCCC.COS(=O)(=O)[O-] + CN(C)C=O
100 kPa
Conditions | viscosity [mPa·s]
293.15 K, x1 = 0.3321 | 27.12
293.15 K, x1 = 0.4272 | 67.1
293.15 K, x1 = 0.9362 | 625
298.15 K, x1 = 1 | 521
303.15 K, x1 = 0.0765 | 2.239
303.15 K, x1 = 0.8837 | 287
308.15 K, x1 = 0.6717 | 99.2
313.15 K, x1 = 0.0474 | 1.983
313.15 K, x1 = 1 | 217
318.15 K, x1 = 0.2582 | 8.21
318.15 K, x1 = 0.3321 | 12.45
323.15 K, x1 = 0.1508 | 3.946
323.15 K, x1 = 0.8837 | 112.5

CCCC[n+]1ccn(C)c1.F[P-](F)(F)(F)(F)F + CN(C)C=O
101 kPa
Conditions | viscosity [mPa·s]
293.15 K, x2 = 0.3999 | 39.7
303.15 K, x2 = 0 | 187.6
303.15 K, x2 = 0.7963 | 2.42
303.15 K, x2 = 0.9399 | 1.21
308.15 K, x2 = 0.3002 | 30.91
308.15 K, x2 = 0.6 | 7.89
308.15 K, x2 = 0.7 | 4.71
313.15 K, x2 = 0.8543 | 1.7
318.15 K, x2 = 0 | 95.8
318.15 K, x2 = 0.2 | 31.22
318.15 K, x2 = 0.6 | 6.16
323.15 K, x2 = 0.4909 | 8.38
323.15 K, x2 = 0.6262 | 4.46

CCCC[n+]1ccn(C)c1.O=S(=O)([N-]S(=O)(=O)C(F)(F)F)C(F)(F)F + CN(C)c1ccccc1
100 kPa, x2 = 0
Conditions | viscosity [mPa·s]
288.15 K | 78.4
293.15 K | 61.5
298.15 K | 49.1
303.15 K | 39.9
308.15 K | 33.2
313.15 K | 27.7
318.15 K | 23.5
323.15 K | 20.13
328.15 K | 17.39
333.15 K | 15.2

CCCC[n+]1cccc(C)c1.O=S(=O)([N-]S(=O)(=O)C(F)(F)F)C(F)(F)F + CO
298.15 K, 101.3 kPa
Conditions | electrical conductivity [S/m]
x2 = 0.1004 | 0.338
x2 = 0.7793 | 1.68
x2 = 0.9417 | 2.04
x2 = 0.9589 | 1.83

CCCC[n+]1ccn(C)c1.O=S(=O)([N-]S(=O)(=O)C(F)(F)F)C(F)(F)F + CO
296.35 K, 100 kPa, frequency 0.01 MHz
Conditions | electrical conductivity [S/m]
x1 = 0.008978 | 1.5
x1 = 0.01434 | 2.51
x1 = 0.02356 | 3.1
x1 = 0.04259 | 4.63
x1 = 0.08668 | 4.31

Conditions | electrical conductivity [S/m] | viscosity [mPa·s]
298 K, 100 kPa, x1 = 0.05 | – | 1.017
298 K, 100 kPa, x1 = 0.1927 | – | 3.181
298 K, 100 kPa, x1 = 0.2796 | – | 5.166
298 K, 100 kPa, x1 = 0.6962 | – | 23.01
298 K, 100 kPa, x1 = 1 | – | 49.7
298 K, 101 kPa, x2 = 0.3686 | 0.596 | –
298 K, 101 kPa, x2 = 0.4819 | – | 13.83
298 K, 101 kPa, x2 = 0.7921 | 2.43 | –
298.15 K, 100 kPa, x2 = 0.0986 | – | 42.43
298.15 K, 100 kPa, x2 = 0.7056 | – | 8.01
303.15 K, 100 kPa, x2 = 0 | – | 40.54
303.15 K, 100 kPa, x2 = 0.0986 | – | 34.9
303.15 K, 100 kPa, x2 = 0.4004 | – | 18.48
318.15 K, 100 kPa, x2 = 0.0986 | – | 20.96
318.15 K, 100 kPa, x2 = 0.295 | – | 14.8
318.15 K, 100 kPa, x2 = 0.4923 | – | 9.36
318.15 K, 100 kPa, x2 = 0.7056 | – | 4.52
323.15 K, 100 kPa, x2 = 0.7056 | – | 4.24
323.15 K, 100 kPa, x2 = 0.8978 | – | 1.12

CCCC[n+]1ccn(C)c1.O=S(=O)([N-]S(=O)(=O)C(F)(F)F)C(F)(F)F + CS(C)=O
100 kPa, x2 = 0
Conditions | viscosity [mPa·s]
303.15 K | 40.54
318.15 K | 23.75

CC#N + C[N+](C)(C)CCC[N+]1(C)CCCCC1.N#C[N-]C#N.N#C[N-]C#N
100 kPa, x2 = 0
Conditions | viscosity [mPa·s]
288.15 K | 0.382
298.15 K | 0.348
303.15 K | 0.333
333.15 K | 0.266

CC#N + C[N+](C)(C)CCC[n+]1ccccc1.N#C[N-]C#N.N#C[N-]C#N
100 kPa, x2 = 0
Conditions | viscosity [mPa·s]
328.15 K | 0.275
333.15 K | 0.266

CCCC[n+]1ccccc1.O=S(=O)([N-]S(=O)(=O)C(F)(F)F)C(F)(F)F + Cc1ccccc1
100 kPa
Conditions | viscosity [mPa·s]
293.15 K, x2 = 0.3972 | 22.63
293.15 K, x2 = 0.6068 | 10
298.15 K, x2 = 0 | 52.9
298.15 K, x2 = 0.5025 | 13.64
303.15 K, x2 = 0.2939 | 21.68
308.15 K, x2 = 0.3972 | 14.21
308.15 K, x2 = 0.5025 | 10.54
313.15 K, x2 = 0.3972 | 12.3
313.15 K, x2 = 0.6068 | 6.62
